“Also recorded” adds a separate entry of the source.

Consider 13 molecules from patent US20130203635A1, “NUCLEIC ACID LIGATION METHOD” (priority 2012, published 2013).

Series [1] concerns Escherichia coli RtcB ligase. Kind of series: E. coli RtcB RNA ligation assay (3′-P and 5′-OH termini, urea-polyacrylamide gel). The format is biochemical. To be noted: for use as cofactor in ligation of 3′-P and 5′-OH RNA termini: in place of GTP, tRNA anticodon stem-loop mimic substrate, with Mn2+ (FIG. 1B, 1C). The text has this: FIG. 1. […] (A) RNA ligation substrate that mimics a broken tRNA anti-codon. FAM label allows visualization in a urea-polyacrylamide gel. […] (B) Cofactor- and metal-dependence of ligation. Reactions contain manganese, except in the “—Mn^2+” lane. The lane labeled “C78A” is a ligation reaction performed with RtcB that has a C78A substitution within the predicted metal binding site. (C) Ligation assays using GTP analogues as cofactors. […] (E) RNA termini specificity of RtcB. Modifications to the ligatable ends of the tRNA mimic substrate were made as indicated and tested in ligation reactions.
To assay for ligation, we initially used two single-stranded RNA (ssRNA) oligos that were each 10 nucleotides in length. The 5′ RNA fragment was labeled with 6-carboxyfluorescein (FAM) at its 5′ end and phosphorylated at its 3′ end. The 3′ RNA fragment had hydroxyl groups at each end. We intended to convert the 3′-P into a 2′,3′-cyclic phosphate by incubation with RtcA and ATP, so as to produce a suitable substrate for RtcB.
These reactions were performed with high concentrations of GTP analogues to ensure saturation of RtcB.
We investigated the RNA termini structure requirements for ligation by modifying the ends of our tRNA mimic substrate. First, all four combinations of either a phosphate or hydroxyl group at each termini were sampled while maintaining a 2′-OH on the 5′ side of the ligation junction. […] Next, the importance of the terminal ribose 2′-OH for ligation was probed by replacing this hydroxyl group with either hydrogen (2′-H) or fluorine (2′-F).

The next series relates to P. horikoshii RtcB. Kind of series: P. horikoshii RtcB RNA ligation assay. The series is classed as biochemical, Pyrococcus horikoshii. The conditions noted are these: for use as cofactor in RNA ligation with Archease: Archease 0.25 μM, NTP 100 μM, RtcB 5 μM (FIG. 10B, 11B). The source says:
FIG. 2. P. horikoshii RtcB catalyzed ligation of 3′-P and 5′-OH RNA termini. P. horikoshii RtcB requires Mn^2+ and GTP for ligation. […] The lane labeled “2′-deoxy” is a ligation reaction using the tRNA mimic substrate but with a 3′-P/2′-H termini on its 5′ fragment. The lane labeled “C98A” is a ligation reaction with RtcB that has a C98A substitution within the predicted metal-binding site.
RtcB from the archaeal domain of life likewise catalyzes the GTP-dependent ligation of 3′-P and 5′-OH RNA termini. The crystal structure of RtcB from a hyperthermophilic archaeon, Pyrococcus horikoshii, was determined as part of a structural genomics project (21). […] The P. horikoshii homologue has 29% amino-acid sequence identity to E. coli RtcB, and 49% identity to the human ligase (HSPC117). To investigate if RtcB from archaea catalyzes the GTP-dependent ligation of 3′-P and 5′-OH RNA termini, we synthesized a P. horikoshii rtcB gene and produced soluble enzyme in E. coli. […] The P. horikoshii ligase also required a 2′-OH on the terminal nucleotide of the 5′ RNA fragment.
RNA Ligation Assay. Ligation assays with single-stranded RNA as the substrate used two 10-nt oligonucleotides that were synthesized by Integrated DNA Technologies (15). […] The 3′ RNA fragment had hydroxyl groups on each end. The sequence of the 5′ fragment was FAM-5′-AAAUAACAAA-3′-P (SEQ ID NO:6) and the sequence of the 3′ RNA fragment was 5′-AAAUAACAAA-3′ (SEQ ID NO:6). Ligation reactions were performed in 10-μL solutions consisting of 50 mM Bis-Tris buffer, pH 7.0, containing NaCl (300 mM), […] (0.25 mM), GTP (100 μM), each RNA fragment (1 μM), and RtcB (10 μM). Reaction mixtures were incubated at 70° C. for 1 h prior to the addition of water (40 μL) and RNA-loading buffer (50 μL). Reaction mixtures were subjected to electrophoresis and visualized as previously described in the previous examples.
The ability of Archease to activate P. horikoshii RtcB was tested in reactions using ssRNA substrates. Ligation reactions included a 10-nt 5′ RNA fragment and a 10-nt 3′ RNA fragment. […] The 3′ RNA fragment had hydroxyl groups on each end. The sequence of the 5′ fragment was FAM-5′-AAAUAACAAA-3′-P (SEQ ID NO:6) and the sequence of the 3′ RNA fragment was 5′-AAAUAACAAA-3′ (SEQ ID NO:6). Ligation reactions were performed in 50-μL solutions consisting of 50 mM Tris-HCl buffer, pH 7.4, containing NaCl (300 mM), MnCl2 (0.25 mM), GTP (100 μM), RNA fragments (100 pmol of each), and P. horikoshii RtcB (5 μM).
Ligation reaction mixtures were set up as described above, and each was divided into two tubes. No Archease was added to one set of reaction mixtures (FIG. 10A), and Archease was added to a concentration of 0.25 μM to the other set (FIG. 10B). […] Archease had no effect on ligation reactions that used 2′-F RNA.
We tested the ability of Archease to enable RtcB to use cofactors other than GTP or dGTP. Ligation reaction mixtures with RtcB were set up as described above, and each was divided into two tubes. No Archease was added to one set of reaction mixtures (FIG. 11A), and Archease was added to a concentration of 0.25 μM to the other set (FIG. 11B). The various NTPs were included at a concentration of 100 μM.

Regarding `Nc1nc2c(ncn2[C@@H]2O[C@H](COP(=O)(O)O)[C@@H](O)[C@H]2O)c(=O)[nH]1` [GMP], the “use as cofactor in ligation of 3′-P and 5′-OH RNA termini” value (“use … of 3′-P and 5′-OH RNA termini” below) in series [1] is recorded as “allowed for low levels of ligation”.

As for `Nc1nc2c(ncn2[C@H]2C[C@H](O)[C@@H](COP(=O)(O)OP(=O)(O)OP(=O)(O)O)O2)c(=O)[nH]1` [dGTP, deoxyguanosine-5′-triphosphate], the “use as cofactor in RNA ligation with Archease” value (“use as cofactor … with Archease” for short) with P. horikoshii RtcB was “enables RtcB to use dGTP efficiently as a cofactor”. The “use as cofactor in RNA ligation” value with P. horikoshii RtcB (RtcB alone, no Archease, ssRNA 10-nt substrates) is given as “ligation activity is reduced substantially; also recorded: at a rate that is much lower than that with GTP; also recorded: ligation efficiency is reduced greatly”.

As for `Nc1nc2c(ncn2[C@@H]2O[C@H](COP(=O)(O)OP(=O)(O)OP(O)(O)=S)[C@@H](O)[C@H]2O)c(=O)[nH]1` [GTPγS], in series [1], the “use … of 3′-P and 5′-OH RNA termini” value is reported as “enabled ligation, albeit at lower efficiency than did GTP”.

Regarding `Nc1ccn([C@@H]2O[C@H](COP(=O)(O)OP(=O)(O)OP(=O)(O)O)[C@@H](O)[C@H]2O)c(=O)n1` [CTP], the “use … of 3′-P and 5′-OH RNA termini” value in series [1] is recorded as “unable to substitute for GTP”. Also, the “use as cofactor … with Archease” value in the series on P. horikoshii RtcB is listed as “not”.

On to `Nc1nc2c(ncn2C2OC(COP(=O)(O)CP(=O)(O)OP(=O)(O)O)C(O)C2O)c(=O)[nH]1` (stereo not drawn) [GpCpp, guanosine 5′-(α,β-methyleno)-triphosphate], for which the “use … of 3′-P and 5′-OH RNA termini” value in series [1] is “unreactive; also recorded: did not enable the ligation to proceed”.

With `Nc1nc2c(ncn2[C@@H]2O[C@H](COP(=O)(O)OP(=O)(O)CP(=O)(O)O)[C@@H](O)[C@H]2O)c(=O)[nH]1` [GppCp], the “use … of 3′-P and 5′-OH RNA termini” value in series [1] is reported as “enabled ligation, albeit at lower efficiency than did GTP”.

On to `Nc1nc2c(ncn2[C@@H]2O[C@H](COP(=O)(O)OP(=O)(O)NP(=O)(O)O)[C@@H](O)[C@H]2O)c(=O)[nH]1` [GppNHp], for which the “use … of 3′-P and 5′-OH RNA termini” value in series [1] is listed as “enabled ligation, albeit at lower efficiency than did GTP”.

With `O=c1ccn([C@@H]2O[C@H](COP(=O)(O)OP(=O)(O)OP(=O)(O)O)[C@@H](O)[C@H]2O)c(=O)[nH]1` [UTP], in series [1], the “use … of 3′-P and 5′-OH RNA termini” value is on record as “unable to substitute for GTP”. Further, the “use as cofactor … with Archease” value in the series on P. horikoshii RtcB is “not”.

Regarding `NC(=O)c1ccc[n+]([C@@H]2O[C@H](COP(=O)([O-])OP(=O)(O)OC[C@H]3O[C@@H](n4cnc5c(N)ncnc54)[C@H](O)[C@@H]3O)[C@@H](O)[C@H]2O)c1` [NAD^+], the “use … of 3′-P and 5′-OH RNA termini” value in series [1] is “unable to substitute for GTP”.

In the case of `Nc1nc2c(ncn2[C@@H]2O[C@H](COP(=O)(O)OP(=O)(O)O)[C@@H](O)[C@H]2O)c(=O)[nH]1` [GDP], in series [1], the “use … of 3′-P and 5′-OH RNA termini” value is “allowed for low levels of ligation”.

B1: C78A: E. coli RtcB with Cys78→Ala78 substitution within predicted metal-binding site (protein, UniProt P46850 1-408, looked up, variant C78A)
RNA-splicing ligase RtcB: MNYELLTTENAPVKMWTKGVPVEADARQQLINTAKMPFIFKHIAVMPDVHLGKGSTIGSVIPTKGAIIPAAVGVDIGAGMNALRTALTAEDLPENLAELRQAIETAVPHGRTTGRCKRDKGAWENPPVNVDAKWAELEAGYQWLTQKYPRFLNTNNYKHLGTLGTGNHFIEICLDESDQVWIMLHSGSRGIGNAIGTYFIDLAQKEMQETLETLPSRDLAYFMEGTEYFDDYLKAVAWAQLFASLNRDAMMENVVTALQSITQKTVRQPQTLAMEEINCHHNYVQKEQHFGEEIYVTRKGAVSARAGQYGIIPGSMGAKSFIVRGLGNEESFCSCSHGAGRVMSRTKAKKLFSVEDQIRATAHVECRKDAEVIDEIPMAYKDIDAVMAAQSDLVEVIYTLRQVVCVKG
B1: in series [1] (substitution within predicted metal-binding site), the “ligase activity of RtcB variant” value was “abolished ligase activity”.

B2: Archease: Pyrococcus horikoshii Archease (SEQ ID NO:9; UniProt O59205), N-terminal hexahistidine tag (protein, listed as Pyrococcus horikoshii)
chain: MKKWEHYEHTADIGIRGYGDSLEEAFEAVAIALFDVMVNVNKVEKKEVREIEVEAEDLEALLYSFLEELLVIHDIEGLVFRDFEVKIERVNGKYRLRAKAYGEKLDLKKHEPKEEVKAITYHDMKIERLPNGKWMAQLVPDI
modifications: N-terminal His6 tag
Turning to B2, the “effect of Archease on catalysis of RNA ligation by RtcB” value with P. horikoshii RtcB (Archease at concentrations lower than RtcB or RNA, GTP 100 μM (FIG. 9)) was “significantly enhances the catalytic activity of RtcB”.

B3: C98A: P. horikoshii RtcB with Cys98→Ala98 substitution within predicted metal-binding site (protein, UniProt O59245 1-871, looked up, variant C98A)
chain: MVVPLKRIDKIRWEIPKFDKRMRVPGRVYADEVLLEKMKNDRTLEQATNVAMLPGIYKYSIVMPDGHQGYGFPIGGVAAFDVKEGVISPGGIGYDINALAPGTRVLTEHGYWLKIEEMPEKFKLQRLRVYNIEEGHNDFSKVVFVAEREVGSEEKAIRIVTESGKVIEGSEDHPVLTPEGYVYLRNVKEGDYILVYPFEGVPYEEKKGVILDESAFEGEDPQVVKFLRERNLIPLQWKDPKVGILARILGFALANGYISENDNLTFHGKEEVLREVRKDLEELGIEAIVAEEDKLKVTSREFAFLLEKLGMAHDSIPEWIIEGPLWIKRNFLAGLFGANGSIVEFKGDVPLPITLTHSRELLNDVSRILEGFKVRAKIKMGKNGSYQLVIEDEDSIRNFLGRINYEYDPEKKARGLIAYAYLKFKELMKGNLMTFEEFARDRGYEGGFVAEKVIEVKSVKPEYDKFYDIGVYHSAHNFIANGIVVHNCGVRLIRTNLTEKEVRPRIKQLVDTLFKNVPSGVGSQGRIKLHWTQIDDVLVDGAKWAVDNGYGWERDLERLEEGGRMEGADPEAVSQRAKQRGAPQLGSLGSGNHFLEVQVVDKIFDPEVAKAYGLFEGQVVVMVHTGSRGLGHQVASDYLRIMERAIRKYRIPWPDRELVSVPFQSEEGQRYFSAMKAAANFAWANRQMITHWVRESFQEVFKQDPEGDLGMDIVYDVAHNIGKVEEHEVDGKRVKVIVHRKGATRAFPPGHEAVPRLYRDVGQPVLIPGSMGTASYILAGTEGAMKETFGSTCHGAGRVLSRKAATRQYRGDRIRQELLNRGIYVRAASMRVVAEEAPGAYKNVDNVVKVVSEAGIAKLVARMRPIGVAKG
B3: in the series with P. horikoshii RtcB (alanine substitution), the “ligase activity of RtcB variant” value is “abolishes ligase activity”.
